Measured values from patent US12630563B2, “Macrocyclic RIP2-kinase inhibitors” (Oncodesign S.A., priority 2020, dated 2026).

Molecular target: T1, recombinant hRIPK2 protein (kinase domain aa 1-299-His-tagged) (Homo sapiens, UniProt O43353)
T1 construct: kinase domain aa 1-299-His-tagged; purchased Life Technologies PR7829A
Experiment: RIPK2 AlphaLISA assay (displacement of bead-bound CZC-8004 from hRIPK2)
Format: binding
Settings: recombinant hRIPK2 kinase domain 10 nM, 2 h at 23° C.
Procedure, shortened: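 His-tagged kinase domain (10 nM, as diluted) was mixed with compound (0.8% DMSO), acceptor beads bearing the probe CZC-8004 and Ni2+ donor beads. After 2 h at 23 °C, AlphaLISA signal was read. Loss of signal reflects displacement of the probe from RIPK2.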

T1 sequence (O43353 1-299): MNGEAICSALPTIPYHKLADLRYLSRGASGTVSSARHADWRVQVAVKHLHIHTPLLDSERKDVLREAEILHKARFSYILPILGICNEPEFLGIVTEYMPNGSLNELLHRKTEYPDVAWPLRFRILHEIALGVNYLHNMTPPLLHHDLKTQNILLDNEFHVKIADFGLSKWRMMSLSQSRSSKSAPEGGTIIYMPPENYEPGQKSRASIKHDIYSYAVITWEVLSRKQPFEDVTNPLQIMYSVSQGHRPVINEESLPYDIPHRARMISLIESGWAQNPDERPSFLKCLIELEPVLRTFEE

| IC50 [nM] | SMILES |
| --- | --- |
| < 10 | COCCO[C@@H]1C[C@H]2COc3ccn4ncc(c4n3)-c3cc(cc(C(C)=O)c3)NCCN2C1=O [Example 98, (12R,14S)-4-acetyl-12-(2-methoxyethoxy)-16-oxa-7,10,20,21,24-pentaazapentacyclo[15.5.2.1^2,6.0^10,^14.0^20,^23]pentacosa-1(23),2,4,6(25),17(24),18,21-heptaen-11-one] |
| < 10 | COCCO[C@@H]1C[C@H]2COc3nc4c(cnn4cc3OC)-c3cc(cc(C(C)=O)c3)NCCN2C1=O [Example 99, (12R,14S)-4-acetyl-18-methoxy-12-(2-methoxyethoxy)-16-oxa-7,10,20,21,24-pentaazapentacyclo[15.5.2.1^2,6.0^10,^14.0^20,^23]pentacosa-1(23),2(25),3,5,17(24),18,21-heptaen-11-one] |
| 10 to 100 | COCC#Cc1cc2cc(c1)-c1cnn3ccc(nc13)OC[C@@H]1C[C@@H](OCCOC)C(=O)N1CCN2 [Example 100, (12R,14S)-12-(2-methoxyethoxy)-4-(3-methoxyprop-1-yn-1-yl)-16-oxa-7,10,20,21,24-pentaazapentacyclo[15.5.2.1^2,6.0^1°,^14.0^2°,^23]pentacosa-1(23),2(25),3,5,17(24),18,21-heptaen-11-one] |
| 100 to 11000 | COCCO[C@@H]1C[C@H]2COc3ccn4ncc(c4n3)-c3cc(cc(C(=O)C4CC4)c3)NCCN2C1=O [Example 101, (12R,14S)-4-cyclopropanecarbonyl-12-(2-methoxyethoxy)-16-oxa-7,10,20,21,24-pentaazapentacyclo[15.5.2.1^2,6.0^1°,^14.0^2°,^23]pentacosa-1(23),2,4,6(25),17(24),18,21-heptaen-11-one] |
| < 10 | C=Cc1cc2cc(c1)-c1cnn3ccc(nc13)OC[C@@H]1C[C@@H](OCC)C(=O)N1CCN2 [Example 102, (12R,14S)-4-ethenyl-12-ethoxy-16-oxa-7,10,20,21,24-pentaazapentacyclo[15.5.2.1^2,6.0^1°,^14.0^2°,^23]pentacosa-1(23),2,4,6(25),17(24),18,21-heptaen-11-one] |
| < 10 | O=C1[C@H](O)C[C@H]2COc3ccn4ncc(c4n3)-c3cc(F)cc(c3)NCCN12 [Example 104, (12R,14S)-4-fluoro-12-hydroxy-16-oxa-7,10,20,21,24-pentaazapentacyclo[15.5.2. 1^2,6.0^10,^14.0^20,^23]pentacosa-1(23),2(25),3,5,17(24),18,21-heptaen-11-one] |
| 10 to 100 | CO[C@@H]1C[C@H]2COc3ccn4ncc(c4n3)-c3cc(cc(C(=O)NOC(C)C)c3)NCCN2C1=O [Example 107, (12R,14S)-12-methoxy-11-oxo-N-(propan-2-yloxy)-16-oxa-7,10,20,21,24-pentaazapentacyclo[15.5.2.1^2,6.0^10,^14.0^20,^23]pentacosa-1(23),2,4,6(25),17(24),18,21-heptaene-4-carboxamide] |
| 100 to 11000 | CO[C@@H]1C[C@H]2COc3ccn4ncc(c4n3)-c3cc(cc(C4CC4)c3)NCCN2C1=O [Example 108, (12R,14S)-4-cyclopropyl-12-methoxy-16-oxa-7,10,20,21,24-pentaazapentacyclo[15.5.2.1^2,6.0^10,^14.0^20,^23]pentacosa-1(23),2,4,6(25),17(24),18,21-heptaen-11-one] |
| < 10 | CO[C@@H]1C[C@H]2COc3ccn4ncc(c4n3)-c3cc(cc(-c4ncno4)c3)NCCN2C1=O [Example 109, (12R,14S)-12-methoxy-4-(1,2,4-oxadiazol-5-yl)-16-oxa-7,10,20,21,24-pentaazapentacyclo[15.5.2.1^2,6.0^1°,^14.0^2°,^23]pentacosa-1(23),2(25),3,5,17(24),18,21-heptaen-11-one] |
| < 10 | [2H]C([2H])([2H])C([2H])([2H])O[C@@H]1C[C@H]2COc3ccn4ncc(c4n3)-c3cc(cc(OC)c3)NCCN2C1=O [Example 110, (12R,14S)-12-(H5)ethoxy-4-methoxy-16-oxa-7,10,20,21,24-pentaazapentacyclo[15.5.2. 1^2,6.0^10,^14.0^20,^23]pentacosa-1(23),2,4,6(25),17(24),18,21-heptaen-11-one] |
| < 10 | COCCO[C@@H]1C[C@H]2COc3nc4c(cnn4cc3C)-c3cc(cc(OC)c3)NCCN2C1=O [Example 115, (12R, 14S)-4-methoxy-12-(2-16-oxa-7,10,20,21,24-pentaazapentacyclo[15.5.2. 1^2,6.0^10,^14.0^20,^23]pentacosa-1(23),2,4,6(25),17(24),18, 21-heptaen-11-one] |
| 10 to 100 | CO[C@@H]1C[C@H]2COc3ccn4ncc(c4n3)-c3cc(cc(-c4cn(C)nn4)c3)NCCN2C1=O [Example 119, (12R,14S)-12-methoxy-4-(1-methyl-1H-1,2,3-triazol-4-yl)-16-oxa-7,10,20,21,24-pentaazapentacyclo[15.5.2.1^2,6.0^1°,^14.0^2°,^23]pentacosa-1(23),2,4,6(25),17(24),18,21-heptaen-11-one] |
| < 10 | COc1cc2cc(c1)-c1cnn3ccc(nc13)OC[C@@H]1C[C@@H](OCC3CCO3)C(=O)N1CCN2 (stereo partly drawn) [Example 120, (12R,14S)-4-methoxy-12-(oxetan-2-ylmethoxy)-16-oxa-7,10,20,21,24-pentaazapentacyclo[15.5.2.1^2,6.0^1°,^14.0^2°,^23]pentacosa-1(23),2,4,6(25),17(24),18,21-heptaen-11-one] |
| < 10 | CCO[C@H]1C[C@H]2COc3ccn4ncc(c4n3)-c3cc(cc(OC)c3)NCCN2C1=O [Example 121, (12S,14S)-12-ethoxy-4-methoxy-16-oxa-7,10,20,21,24-pentaazapentacyclo[15.5.2.1^2,6.0^10,^14.0^20,^23]pentacosa-1(23),2,4,6(25),17(24),18,21-heptaen-11-one] |
| < 10 | COCCO[C@@H]1C[C@H]2COc3nc4c(cnn4cc3OCC3(C)COC3)-c3cc(cc(OC)c3)NCCN2C1=O [Example 122] |
| < 10 | COCCO[C@@H]1C[C@H]2COc3nc4c(cnn4cc3OCC3CC3)-c3cc(cc(OC)c3)NCCN2C1=O [Example 123, (12R,14S)-18-(cyclopropylmethoxy)-4-methoxy-12-(2-methoxyethoxy)-16-oxa-7,10,20,21,24-pentaazapentacyclo[15.5.2. 1^2,6.0^10,^14.0^20,^23]pentacosa-1(23),2(25),3,5,17(24),18,21-heptaen-11-one] |
| < 10 | CCOc1cn2ncc3c2nc1OC[C@@H]1C[C@@H](OCCOC)C(=O)N1CCNc1cc(OC)cc-3c1 [Example 124, (12R,14S)-18-ethoxy-4-methoxy-12-(2-methoxyethoxy)-16-oxa-7,10,20,21,24-pentaazapentacyclo[15.5.2. 1^2,6.0^10,^14.0^20,^23]pentacosa-1(23),2,4,6(25),17(24),18,21-heptaen-11-one] |
| < 10 | COCCO[C@@H]1C[C@H]2COc3nc4c(cnn4cc3OC(C)C)-c3cc(cc(OC)c3)NCCN2C1=O [Example 125, (12R,14S)-4-methoxy-12-(2-methoxyethoxy)-18-(propan-2-yloxy)-16-oxa-7,10,20,21,24-pentaazapentacyclo[15.5.2. 1^2,6.0^10,^14.0^20,^23]pentacosa-1(23),2,4,6(25),17(24),18,21-heptaen-11-one] |
| < 10 | COCCO[C@@H]1C[C@H]2COc3nc4c(cnn4cc3OCCN(C)C)-c3cc(cc(OC)c3)NCCN2C1=O [Example 126, (12R,14S)-18-[2-(dimethylamino)ethoxy]-4-methoxy-12-(2-methoxyethoxy)-16-oxa-7,10,20,21,24-pentaazapentacyclo[15.5.2. 1^2,6.0^10,^14.0^20,^23]pentacosa-1(23),2,4,6(25),17(24),18,21-heptaen-11-one] |
